Data reported in patent US6267968A, “MDP derivatives and conjugates having haematipoietic function stimulating activity, and compositions containing same” (Vacsyn S.A., priority 1995, dated 2001).
Entries after “also recorded” stand apart in the source; their conditions may differ.

Experiments:
[1] = test system: circulating myelocytes (HSC); experiment: Mobilization of HSC after combined oral treatment with AZT and Muradimetide (Example 4); type: in vivo, mice; details: for effect on the mobilization of HSC (myelocyte count, FIG. 11): MDM 25 mg/kg, AZT 50 mg/kg or mixture, oral, days 0-3 and 7-10 (2 weeks); for No. of circulating myelocytes: p.o., one compound alone at 0 h (AZT 50 mg/Kg or Muradimetide 25 mg/Kg), 24 hours after 4 daily administrations
Method: Table 3 below and FIG. 11 show the effect of an oral treatment of mice with Muradimetide before, at the same time as or after AZT administered at 50 mg per kg, on the number of circulating myelocytes tested 24 hours after 4 daily administrations.
The mean number of circulating myelocytes before the treatment lies between 3 and 15×10^4 cells per ml in the 5 groups.
The "P-value" was calculated by the Mann Whitney U Rank test.

circulating myelocytes = experiment: Comparison of oral Muradimetide with MDPA after intravenous AZT, myelocyte count (Example 10); type: in vivo, female Swiss mice; details: AZT 40 mg per kg i.v. days 0-3; MDPA 25 mg per kg 4 hours before AZT
Method: In this experiment, female Swiss mice were treated intravenously with 40 mg per kg of AZT on days 0, 1, 2 and 3. Groups of 5 mice received on the same four days, and 4 hours before AZT, either physiological saline, or MDPA at a dose of 25 mg per kg or Muradimetide orally at a dose of 25 mg per kg. Myelocyte counts were carried out on days 0, 2, 3, 4 and 8. The asterisks above the histograms have the same meaning as in the previous diagrams.

[2] = test system: normal circulating leukocytes (predominantly neutrophils and lymphocytes) and immature circulating leukocytes (myelocytes); experiment: Muradimetide administered alone intravenously for 4 consecutive days, circulating cell counts (Example 1); type: in vivo, mice; details: for No. of Lymphocytes / No. of Myelocytes / No. of Neutrophils: 25 mg/kg i.v.; for No. of Lymphocytes / No. of Myelocytes / No. of Neutrophils / No. of Leukocytes: 4 consecutive days; for No. of Leukocytes: Muradimetide 25 mg/kg i.v.
Method: Table 1 below depicts the leukocyte, neutrophil, lymphocyte and myelocyte counts as a function of the time after treatment with Muradimetide alone administered at a dose of 25 mg/kg. The treatment is performed for 4 consecutive days by intravenous injection.

[3] = test system: circulating leukocytes, neutrophils and myelocytes; experiment: Intravenous or oral Muradimetide, cell counts modified by intravenous AZT (Example 2); type: in vivo, male CDI mice
Method: Treatment with AZT alone classically induces a decrease in the number of circulating leukocytes and neutrophils. This decrease is followed by a restoration occurring approximately 4 to 7 days after the beginning of the treatment. When Muradimetide has been administered systemically or orally after a treatment with 40 mg/kg of AZT, there is no fall in the number of cells and, on the contrary, there is a multiplication by at least 1.5 of the number of leukocytes and a tripling of the number of neutrophils, this already occurring after 4 days.
Male CDI mice (5 per group) were injected with AZT at a dose of 40 mg per kg on days 0 to 3. Muradimetide is administered on the same days at a dose of 10 mg per kg intravenously or 50 mg per kg orally. Cell counts are done an day 0 (before the treatment) and on days 3 and 4.

red cells and platelets = experiment: 7-day oral treatment with AZT, muradimetide or both, red cell and platelet counts (Example 3); type: in vivo; details: p.o. once daily for 7 consecutive days; AZT 100 mg/kg, muradimetide 50 mg/kg or both; counts up to day 10
Method: The effect of a 7-day treatment on the number of red cells and of platelets is seen in FIGS. 9 and 10, respectively. The counts are shown as a percentage of those obtained on day 0. Female BALB/c mice (5 per group) are treated once daily for 7 consecutive days with 100 mg/kg of AZT (Δ), 50 mg/kg of muradimetide (.quadrature.) or simultaneously with 100 mg/kg of AZT and 50 mg/kg of muradimetide (.largecircle.). Platelet or red cell counts were done on day 0 and up to 10 days following the beginning of the treatment. No toxicity on the platelets is seen, either with AZT, muradimetide or the mixture of these compounds. The upward trend in their number is apparent between days 4 and 5.

[4] = test system: circulating HSC (GM-CFU, LPP-CFU, HPP-CFU, CAFC, LTC-IC); experiment: Mobilization of HSC by stage of differentiation, culture of blood mononuclear cells (Example 7); type: in vivo, Balb/c mice; details: AZT 50 mg/kg, MDM 25 mg/kg or mixture once daily for three days; blood 24 hours after last administration
Method: In all cases, the culture conditions, especially their duration, were chosen to permit an optimal detection of the different populations in question. For this study, the effect of injecting saline (X--), AZT at 50 mg/kg, MDM at 25 mg/kg and the mixture of the two on the number of circulating HSC were compared. The mononuclear cells after purification were cultured for 5 days in order to count the GM-CFU (for granulocyte-macrophage colony forming units), for 28 days to count the low proliferating potential (LPP) colony forming units and the high proliferating potential (HPP) CFU. The CAFC were counted after 14 days of culture. The LTC-IC after 28 days. The results are presented in FIGS. 14a, 14b, 14c and 14d, respectively. The mice (10 Balb/c per group) received once daily and for three consecutive days either physiological saline, or AZT, or MDM or the mixture of the two under the above dose conditions. Twenty-four hours after the last administration, the blood of all the mice in each group was collected. For the experiments depicted in FIGS. 14a, 14b and 14c, the mononuclear cells were then separated on density gradients and cultured in a semisolid medium for a period of 5 days for the GM-CFU and 28 days for the LPP-CFU. […]

[5] = test system: circulating leukocytes, neutrophils and myelocytes; experiment: Oral Muradimetide with nonmyelotoxic or myelotoxic intravenous doses of AZT, cell counts (Example 8); type: in vivo, female Swiss mice; details: Muradimetide 25 mg per kg orally 4 hours before AZT i.v. 5 or 40 mg per kg, days 0-3
Method: In this experiment female Swiss mice were injected intravenously with AZT at a dose of 5 or 40 mg per kg on days 0, 1, 2 and 3. On each of the 4 days, and 4 hours before the administration of AZT, groups of mice consisting of 5 individuals received orally either buffer or Muradimetide at a dose of 25 mg per kg.
Cell counts are done on days 0, 1, 2, 3, 4 and 7.
FIG. 3 represents the same experiment in which the myelocytes are counted.

[6] = test system: circulating neutrophils, leukocytes, monocytes and myelocytes; experiment: Comparison of Muradimetide and GM-CSF after intravenous AZT (Example 9); type: in vivo, female Swiss mice; details: AZT 40 mg per kg i.v. days 0-3; for HSC in the blood (circulating myelocytes, FIG. 7) / leukocyte and neutrophil counts: Muradimetide 25 mg per kg or mGM-CSF 125 μg per kg i.v. 4 hours before
Method: FIGS. 4, 5, 6 and 7 show the effect of a treatment of mice with Muradimetide or with mGM-CSF on the changes in the circulating neutrophils, in the circulating leukocytes or in the circulating monocytes or in the circulating myelocytes, respectively, after an intravenous administration of AZT.
Female Swiss mice were treated intravenously with 40 mg per kg of AZT on days 0, 1, 2 and 3. The groups of mice (5 per group) receive, 4 hours before AZT, either physiological saline, or Muradimetide at 25 mg per kg or mGM-CSF at 125 μg per kg intravenously. Counts are done on days 0, 2, 3, 4 and 8. The asterisks above the histograms indicate that there is a significant difference in the count compared to the values obtained before the treatment on day 0.

[7] = Muradimetide i.v. 10 mg/kg with AZT i.v. 40 mg/kg, day 0 (before the treatment)
[8] = Muradimetide i.v. 10 mg/kg with AZT i.v. 40 mg/kg, day 3
[9] = Muradimetide i.v. 10 mg/kg with AZT i.v. 40 mg/kg, day 4
[10] = Muradimetide p.o. 50 mg/Kg with AZT i.v. 40 mg/kg, day 0 (before the treatment)
[11] = Muradimetide p.o. 50 mg/Kg with AZT i.v. 40 mg/kg, day 3
[12] = Muradimetide p.o. 50 mg/Kg with AZT i.v. 40 mg/kg, day 4
[13] = Muradimetide systemically or orally after treatment with 40 mg/kg of AZT, after 4 days

Molecule: Cc1cn([C@H]2C[C@H](N=[N+]=[N-])[C@@H](CO)O2)c(=O)[nH]c1=O [AZT, 3'-azido-3'-deoxythymidine, reference compound]
- effect on the mobilization of HSC (myelocyte count, FIG. 11) [1]: no effect
- No. of circulating myelocytes [1]: 6 ± 8 × 10^4 /ml

Molecule: CC(=O)N[C@H]1C(O)O[C@H](CO)[C@@H](O)[C@@H]1O[C@H](C)C(=O)N[C@@H](C)C(=O)N[C@H](CCC(=O)O)C(=O)O (stereo partly drawn) [MDPA, Nac--Mur--L--Ala--D--Glu]
- antimyelotoxic effect and mobilization of HSC in the blood circulation (myelocyte count, FIG. 8) (circulating myelocytes): not occurring

Molecule: COC(=O)CC[C@@H](NC(=O)[C@H](C)NC(=O)[C@@H](C)O[C@H]1[C@H](O)[C@@H](CO)OC(O)[C@@H]1NC(C)=O)C(=O)OC (stereo partly drawn) [Muradimetide, Nac--Mur--L--Ala--D--Glu--[OCH3]--OCH3]
- No. of Lymphocytes ([2]; day 0): 38 ± 12 × 10^5 /ml
- No. of Myelocytes ([2]; day 0): 7 ± 6 × 10^4 /ml
- No. of Neutrophils ([2]; day 0): 11 ± 3 × 10^5 /ml
- No. of Lymphocytes ([2]; day 2): 41 ± 17 × 10^5 /ml
- No. of Myelocytes ([2]; day 2): 8 ± 8 × 10^4 /ml
- No. of Neutrophils ([2]; day 2): 10 ± 3 × 10^5 /ml
- No. of Lymphocytes ([2]; day 3): 35 ± 13 × 10^5 /ml
- No. of Myelocytes ([2]; day 3): 40 ± 5 × 10^4 /ml
- No. of Neutrophils ([2]; day 3): 13 ± 5 × 10^5 /ml
- No. of Lymphocytes ([2]; day 4): 34 ± 8 × 10^5 /ml
- No. of Myelocytes ([2]; day 4): 72 ± 27 × 10^4 /ml
- No. of Neutrophils ([2]; day 4): 12 ± 4 × 10^5 /ml
- No. of Lymphocytes ([2]; day 7): 38 ± 10 × 10^5 /ml
- No. of Myelocytes ([2]; day 7): 4 ± 4 × 10^4 /ml
- No. of Neutrophils ([2]; day 7): 12 ± 4 × 10^5 /ml
- No. of Leukocytes ([2]; day 2): 52 ± 12 × 10^5 /ml
- No. of Leukocytes ([2]; day 3): 52 ± 17 × 10^5 /ml
- No. of Leukocytes ([2]; day 4): 52 ± 15 × 10^5 /ml
- No. of Leukocytes ([2]; day 7): 50 ± 13 × 10^5 /ml
- No. of Leukocytes ([2]; day of measurement 0): 50 ± 14 × 10^5 /ml
- increase in the number of circulating myelocytes ([2]; Muradimetide administered alone, days 3 and 4): highly significant
- Leukocytes ([3]; Muradimetide i.v. 10 mg/kg days 0-3 with AZT i.v. 40 mg/kg, day 0 (before the treatment)): 6.0 ± 3.4 × 10^6 /ml
- Leukocytes ([3]; Muradimetide i.v. 10 mg/kg days 0-3 with AZT i.v. 40 mg/kg, day 3): 5.9 ± 2.9 × 10^6 /ml
- Leukocytes ([3]; Muradimetide i.v. 10 mg/kg days 0-3 with AZT i.v. 40 mg/kg, day 4): 7.6 ± 1.6 × 10^6 /ml
- Myelocytes [3, 7]: 5 ± 7 × 10^4 /ml
- Neutrophils [3, 7]: 2.0 ± 1.3 × 10^6 /ml
- Myelocytes [3, 8]: 145 ± 83 × 10^4 /ml
- Neutrophils [3, 8]: 1.5 ± 0.8 × 10^6 /ml
- Myelocytes [3, 9]: 117 ± 46 × 10^4 /ml
- Neutrophils [3, 9]: 4.6 ± 1.5 × 10^6 /ml
- Leukocytes ([3]; Muradimetide p.o. 50 mg/Kg days 0-3 with AZT i.v. 40 mg/kg, day 0 (before the treatment)): 4.8 ± 0.4 × 10^6 /ml
- Leukocytes ([3]; Muradimetide p.o. 50 mg/Kg days 0-3 with AZT i.v. 40 mg/kg, day 3): 6.1 ± 1.4 × 10^6 /ml
- Leukocytes ([3]; Muradimetide p.o. 50 mg/Kg days 0-3 with AZT i.v. 40 mg/kg, day 4): 8.1 ± 2.9 × 10^6 /ml
- Myelocytes [3, 10]: 14 ± 13 × 10^4 /ml
- Neutrophils [3, 10]: 1.4 ± 0.5 × 10^6 /ml
- Myelocytes [3, 11]: 123 ± 55 × 10^4 /ml
- Neutrophils [3, 11]: 1.6 ± 0.5 × 10^6 /ml
- Myelocytes [3, 12]: 138 ± 59 × 10^4 /ml
- Neutrophils [3, 12]: 4.3 ± 2.47 × 10^6 /ml
- increase of the number of neutrophils [3, 13]: tripling
- multiplication of the number of leukocytes [3, 13]: at least 1.5
- percentage of myelocytes or of promyelocytes ([3]; with AZT 40 mg/kg i.v., irrespective of mode of administration of Muradimetide): spectacular increase
- toxicity on the platelets (red cells and platelets): No toxicity
- effect on the mobilization of HSC (myelocyte count, FIG. 11) [1]: significant effect
- No. of circulating myelocytes [1]: 17 ± 15 × 10^4 /ml
- effect on the number of circulating HSC (GM-CFU, LPP-CFU, HPP-CFU, CAFC; FIGS. 14a-14d) [4]: clearly apparent
- time of maximum effect on leukocyte, neutrophil and myelocyte counts (FIGS. 1-3) [5]: 4 days
- HSC in the blood (circulating myelocytes, FIG. 7) [6]: very strong elevation; also recorded: mobilizes HSC
- leukocyte and neutrophil counts [6]: markedly pronounced effect

B1: GM-CSF: recombinant mouse GM-CSF, lymphokine customarily used to stimulate myelocytes (protein, UniProt P01587 18-141, looked up)
Granulocyte-macrophage …: APTRSPITVTRPWKHVEAIKEALNLLDDMPVTLNEEVEVVSNEFSFKKLTCVQTRLKIFEQGLRGNFTKLKGALNMTASYYQTYCPPTPETDCETQVTTYADFIDSLKTFLTDIPFECKKPGQK
- HSC in the blood (circulating myelocytes, FIG. 7) [6]: does not do so
- leukocyte and neutrophil counts [6]: do not display an increase
- number of monocytes ([6]; mGM-CSF 125 μg per kg i.v. 4 hours before): increase in the number of monocytes
